Results from ChEMBL document CHEMBL5257038, “Active Natural Product Scaffolds against Trypanosomatid Parasites: A Review” (J Nat Prod, 2018).
Each block holds one compound with its values, some of them ahead of it.

Experiments:
[1] = system: Trypanosoma cruzi; experiment: Antitrypanosomal activity against epimastigote form of Trypanosoma cruzi assessed as reduction in parasite growth; assay type: functional, organism-based
[2] = system: Trypanosoma brucei brucei; experiment: Antitrypanosomal activity against Trypanosoma brucei brucei; assay type: functional, organism-based
[3] = system: Leishmania major; experiment: Antileishmanial activity against Leishmania major promastigotes assessed as parasite growth inhibition; assay type: functional, organism-based
[4] = Selectivity index, ratio of EC50 for cytotoxicity against African green monkey Vero cells to EC50 for antileishmanial activity against Leishmania major promastigotes; assay type: toxicity, cell-based; details: read-out: Ratio EC50
[5] = Selectivity index, ratio of EC50 for cytotoxicity against African green monkey Vero cells to EC50 for antitrypanosomal activity against epimastigote form of Trypanosoma cruzi; assay type: toxicity, cell-based; details: read-out: Ratio EC50
[6] = Selectivity index, ratio of EC50 for cytotoxicity against African green monkey Vero cells to EC50 for antitrypanosomal activity against Trypanosoma brucei brucei; assay type: toxicity, cell-based; details: read-out: Ratio EC50
[7] = system: Trypanosoma cruzi (intracellular amastigotes); experiment: Antiparasitic activity against Trypanosoma cruzi intracellular amastigotes assessed as reduction in cell viability at 50 uM relative to control
[8] = Selectivity index, ratio of CC50 for cytotoxicity against HEK293T cells to EC50 for antitrypanosomal activity against bloodstream form of Trypanosoma brucei brucei; assay type: toxicity, cell-based; details: human, read-out: Ratio CC50/EC50
[9] = system: Trypanosoma brucei brucei; experiment: Antitrypanosomal activity against bloodstream form of Trypanosoma brucei brucei assessed as reduction in parasite growth; assay type: functional, organism-based
[10] = system: Trypanosoma cruzi (intracellular amastigotes); experiment: Antiparasitic activity against Trypanosoma cruzi intracellular amastigotes assessed as reduction in cell viability at 50 uM relative to control; remark: listed apart in the source
[11] = Selectivity index, ratio of CC50 for cytotoxicity against human HepG2 cells to EC50 for antitrypanosomal activity against bloodstream form of Trypanosoma brucei brucei; assay type: toxicity, cell-based; details: read-out: Ratio CC50/EC50
[12] = system: Leishmania donovani; experiment: Antileishmanial activity against Leishmania donovani promastigotes infected in golden hamster assessed as reduction in parasite load in spleen at 14.0 mg/kg administered twice per week for 4 weeks relative to control; assay type: functional; set-up: scale not given: the % may be the effect or the level left
[13] = system: Leishmania donovani; experiment: Antileishmanial activity against amastigote form of Leishmania donovani assessed as parasite growth inhibition; assay type: functional, organism-based
[14] = system: Leishmania donovani; experiment: Antileishmanial activity against amastigote form of Leishmania donovani HU3 infected in Balb/c mouse assessed as parasite growth inhibition at 30 mg/kg, ip for 5 days relative to control; assay type: functional; details: HU3, 120 h, time 5 day
[15] = system: Leishmania mexicana; experiment: Antileishmanial activity against Leishmania mexicana promastigotes assessed as parasite growth inhibition; assay type: functional, organism-based
[16] = system: Trypanosoma cruzi; experiment: In vivo antitrypanosomal activity against Trypanosoma cruzi infected in mouse assessed as survival rate measured upto 50 days relative to control; assay type: functional; details: time <= 50 day
[17] = system: Trypanosoma cruzi; experiment: Antitrypanosomal activity against trypomastigote form of Trypanosoma cruzi assessed as reduction in parasite growth; assay type: functional, organism-based
[18] = system: Trypanosoma cruzi; experiment: In vivo antitrypanosomal activity against Trypanosoma cruzi infected in mouse assessed as fold reduction in parasitemia measured upto 30 days; assay type: functional; details: time <= 30 day
[19] = system: Trypanosoma brucei rhodesiense; experiment: Antitrypanosomal activity against Trypanosoma brucei rhodesiense bloodstream form
[20] = system: Trypanosoma cruzi; experiment: Antitrypanosomal activity against Trypanosoma cruzi amastigote; assay type: functional, organism-based; details: Trypanosoma cruzi
[21] = system: Leishmania amazonensis; experiment: Antileishmanial activity against Leishmania amazonensis promastigotes assessed as parasite growth inhibition; assay type: functional, organism-based
[22] = system: Leishmania amazonensis; experiment: Antileishmanial activity against Leishmania amazonensis amastigotes assessed as parasite growth inhibition; assay type: functional, organism-based
[23] = Selectivity index, ratio of IC50 for cytotoxicity against human MRC5 cells to IC50 for antitrypanosomal activity against intracellular Trypanosoma cruzi amastigote; assay type: toxicity, cell-based; details: read-out: Ratio IC50
[24] = system: Leishmania infantum; experiment: Antileishmanial activity against amastigote stage of Leishmania infantum; assay type: functional, organism-based
[25] = system: Trypanosoma brucei; experiment: Antitrypanosomal activity against bloodstream form of Trypanosoma brucei assessed as parasite growth inhibition; assay type: functional, organism-based
[26] = Selectivity index, ratio of IC50 for cytotoxicity against human MRC5 cells to IC50 for antitrypanosomal activity against bloodstream form of Trypanosoma brucei; assay type: toxicity, cell-based; details: read-out: Ratio IC50
[27] = system: Trypanosoma cruzi; experiment: Antitrypanosomal activity against intracellular Trypanosoma cruzi amastigote assessed as reduction in parasite growth; assay type: functional, organism-based
[28] = Selectivity index, ratio of IC50 for cytotoxicity against human MRC5 cells to IC50 for antileishmanial activity against amastigote stage of Leishmania infantum; assay type: toxicity, cell-based; details: read-out: Ratio IC50
[29] = system: Leishmania donovani; experiment: Antileishmanial activity against Leishmania donovani intracellular amastigotes assessed as parasite growth inhibition; assay type: functional, organism-based
[30] = Selectivity index, ratio of IC50 for cytotoxicity against African green monkey Vero cells to IC50 for antitrypanosomal activity against Trypanosoma cruzi amastigote; assay type: toxicity, cell-based; details: read-out: Ratio IC50
[31] = Selectivity index, ratio of IC50 for cytotoxicity against African green monkey Vero cells to IC50 for antileishmanial activity against amastigote form of Leishmania donovani; assay type: toxicity, cell-based; details: read-out: Ratio IC50
[32] = system: Trypanosoma cruzi; experiment: In vivo antitrypanosomal activity against Trypanosoma cruzi infected in mouse assessed as survival rate measured upto 30 days relative to control; assay type: functional; details: time <= 30 day
[33] = Selectivity index, ratio of IC50 for cytotoxicity against rat L6 cells to IC50 for antitrypanosomal activity against bloodstream form of Trypanosoma brucei rhodesiense; assay type: toxicity, cell-based; details: read-out: Ratio IC50
[34] = system: Plasmodium berghei; experiment: In vivo antimalarial activity against GFP-transfected Plasmodium berghei ANKA infected in NMRI mouse assessed as reduction in parasitemia at 50 mg/kg/day, ip administered for 4 consecutive days relative to control; assay type: functional
[35] = system: Plasmodium berghei; experiment: In vivo antimalarial activity against GFP-transfected Plasmodium berghei ANKA infected in NMRI mouse assessed as reduction of parasitaemia at 100 mg/kg/day, po for 4 days relative to control; assay type: functional; details: 96 h, time 4 day
[36] = system: Trypanosoma brucei rhodesiense; experiment: Antitrypanosomal activity against bloodstream form of Trypanosoma brucei rhodesiense assessed as parasite growth inhibition; assay type: functional, organism-based
[37] = Selectivity index, ratio of CC50 for cytotoxicity against rat L6 cells to IC50 for […] activity against amastigote form of Leishmania donovani; assay type: toxicity, cell-based; details: read-out: Ratio CC50/IC50
[38] = Selectivity index, ratio of CC50 for cytotoxicity against rat L6 cells to IC50 for antitrypanosomal activity against bloodstream form of Trypanosoma brucei rhodesiense; assay type: toxicity, cell-based; details: read-out: Ratio CC50/IC50
[39] = system: Trypanosoma brucei; experiment: Antitrypanosomal activity against Trypanosoma brucei; assay type: functional, organism-based
[40] = Inhibition of Trypanosoma brucei CLK1
[41] = system: Trypanosoma brucei; experiment: In vivo antitrypanosomal activity against Trypanosoma brucei infected in mouse assessed as cured animal rate at 10 mg/kg administered once daily for 7 days relative to control; assay type: functional; details: time 7 day
[42] = system: Leishmania amazonensis; experiment: Antileishmanial activity against Leishmania amazonensis intracellular amastigotes assessed as parasite growth inhibition; assay type: functional, organism-based
[43] = Selectivity index, ratio of CC50 for cytotoxicity against mouse J774.G8 cells to IC50 for antileishmanial activity against Leishmania amazonensis promastigotes; assay type: toxicity, cell-based; details: read-out: Ratio CC50/IC50

SMILES: O=c1c(O)c(-c2ccc(O)c(O)c2)oc2cc(O)cc(O)c12 [QUERCETIN]
Activity [12]: 90% | EC50 [13]: 3.3 µM | EC50 [9]: 25.8 µM | inhibition in vivo at 30 mg/kg [14]: 15%

SMILES: C=C1C(=O)O[C@@H]2[C@H]1CC[C@H](C)[C@]1(CCC(=O)O1)[C@@]2(C)O [PSILOSTACHYIN A]
EC50 [1]: 4.3 µM | EC50 [15]: 0.42 µM | Survival [16]: 100% | EC50 [17]: 12.5 µM | fold change (FC) [18]: 1.5

SMILES: CC(C)[C@@H](C)/C=C/[C@@H](C)[C@H]1CC[C@@H]2[C@]1(C)CC[C@H]1[C@]23C=C[C@]2(C[C@@H](O)CC[C@]12C)OO3 [ERGOSTEROL PEROXIDE]
EC50 [1]: 16.8 µM | EC50 [21]: 13.9 µM | EC50 [22]: 4 µM

SMILES: C=C(C)[C@H]1[C@H]2[C@@H](OC(C)=O)C[C@@H](C)[C@@H]3C(OC)C=C(C)[C@@]213 (some centres undefined)
EC50 [29]: 5 µM

SMILES: C=C1C(=O)O[C@@H]2[C@H]1CC[C@H](C)[C@@H]1CCC(=O)O[C@@]21C
EC50 [1]: 2.3 µM | EC50 [15]: 4.5 µM | Survival [32]: 20% | EC50 [21]: 5.7 µM | fold change (FC) [18]: 2 | EC50 [27]: 3.4 µM

SMILES: C/C=C/[C@]1(C)C[C@@](/C=C(\C)C[C@@H](CC)CC/C=C/CC)(CC)OO1
EC50 [39]: 5 µM

SMILES: C=C1CC[C@@H](OC(C)=O)[C@H]2CC=C3[C@](C)(CC[C@]3(O)C(C)C)C[C@]12O
EC50 [21]: 5.5 µM | EC50 [42]: 18 µM | selectivity ratio [43]: 93

Further lines, with some results ahead:

EC50 [1]: 12.7 µM | EC50 [2]: 5.1 µM
SMILES: CCOC1C[C@H](CCCCOCc2ccccc2)O[C@H](Cn2cc([C@@H]3CCC[C@H](CCCCOCc4ccccc4)O3)nn2)C1 (some centres undefined)
EC50 [3]: 15.3 µM | selectivity ratio [4]: 33 | selectivity ratio [5]: 39 | selectivity ratio [6]: 100

EC50 [9]: 5.3 µM
SMILES: C=C1CO[C@H]2/C=C(\C)CC[C@@H]3O[C@@]3(C)CC/C=C(\C)CC[C@@]12O
Activity [7]: 15.2% | selectivity ratio [8]: > 20 | Activity [10]: 15.2% | selectivity ratio [11]: > 20

EC50 [19]: 2.2 µM | EC50 [20]: 2 µM
SMILES: Cn1c2nc3ccccc3c-2cc2ccccc21 [NEOCRYPTOLEPINE]
EC50 [13]: 49.5 µM

EC50 [24]: 8 µM | EC50 [25]: 7.9 µM | EC50 [27]: 8.9 µM
SMILES: COc1c(O)cc2oc3cc(O)c(CC=C(C)C)c(O)c3c(=O)c2c1CC=C(C)C [MANGOSTIN]
selectivity ratio [23]: 0.84 | selectivity ratio [26]: 0.95 | selectivity ratio [28]: 0.93

EC50 [27]: 6.5 µM
SMILES: C/C1=C/C(=O)O[C@H](C(C)(C)C)CCC[C@H](O)CCC[C@H](O)CCC[C@H](O)CCC[C@@H](O)C[C@@H](O)C[C@H](O)CCC[C@@H](O)CCC[C@@H](O)C[C@@H](O)CCCCC1
EC50 [13]: 3 µM | selectivity ratio [30]: 2 | selectivity ratio [31]: 1

EC50 [36]: 3.1 µM
SMILES: O=C(O)c1ccc2c(n1)C(=O)C1=C(C2=O)S(=O)(=O)CCN1 [ACIDIATHIAZONE A]
selectivity ratio [33]: 50 | inhibition in vivo at 50 mg/kg/day [34]: 85% | inhibition in vivo at 100 mg/kg/day [35]: 45%

EC50 [27]: 120 µM | EC50 [36]: 0.8 µM
SMILES: NC1=N[C@]2([C@H](O)N1)[C@@H](Cl)[C@H](CCl)[C@H]1CN3C(=O)c4cc(Br)c(Br)n4[C@@H]4NC(N)=N[C@@]43[C@@H]12
EC50 [13]: 1.9 µM | selectivity ratio [37]: 4 | selectivity ratio [38]: 10

EC50 [25]: 0.17 µM
SMILES: COc1cc(O)c2c(c1)[C@H]1O[C@@H]1C[C@H](O)[C@H](O)C(=O)/C=C\C[C@H](C)OC2=O [HYPOTHEMYCIN]
IC50 [40]: 0.15 µM | Activity [41]: 33%
